In PubChem BioAssay (NCI):
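Protocol summary: plate cells (96-well), add compound at 5 concentrations, incubate 48 h, interpolate endpoints linearly. TGI: total growth inhibition.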

How the values were obtained:
Test in all cases: NCI anticancer screen, dose series, 48 h
COLO 205 colon = tested on: COLO 205 colon
RXF 393 renal = tested on: RXF 393 renal
SR leukemia = tested on: SR leukemia
PC-3 prostate = tested on: PC-3 prostate
CCRF-CEM leukemia = tested on: CCRF-CEM leukemia
MALME-3M melanoma = tested on: MALME-3M melanoma
RPMI-8226 leukemia = tested on: RPMI-8226 leukemia
SK-MEL-28 melanoma = tested on: SK-MEL-28 melanoma
SF-295 CNS = tested on: SF-295 CNS
LOX IMVI melanoma = tested on: LOX IMVI melanoma
HT29 colon = tested on: HT29 colon
EKVX NSCLC = tested on: EKVX NSCLC
U251 CNS = tested on: U251 CNS
NCI-H522 lung = tested on: NCI-H522 lung
DU-145 prostate = tested on: DU-145 prostate
UACC-62 melanoma = tested on: UACC-62 melanoma
BT-549 breast = tested on: BT-549 breast
OVCAR-4 ovarian = tested on: OVCAR-4 ovarian
HL-60(TB) leukemia = tested on: HL-60(TB) leukemia
SNB-75 CNS = tested on: SNB-75 CNS

COc1cccc2c(NNc3ccccc3)c3ccc([N+](=O)[O-])cc3nc12
TGI (COLO 205 colon): > 100 µM | TGI (RXF 393 renal): > 100 µM | TGI (SR leukemia): 50.5 µM | TGI (PC-3 prostate): > 100 µM | TGI (CCRF-CEM leukemia): > 100 µM | TGI (MALME-3M melanoma): > 100 µM | TGI (RPMI-8226 leukemia): > 100 µM | TGI (SK-MEL-28 melanoma): > 100 µM | TGI (SF-295 CNS): > 100 µM | TGI (LOX IMVI melanoma): > 100 µM | TGI (HT29 colon): > 100 µM | TGI (EKVX NSCLC): > 100 µM | TGI (U251 CNS): > 100 µM | TGI (NCI-H522 lung): > 100 µM | TGI (DU-145 prostate): > 100 µM | TGI (UACC-62 melanoma): > 100 µM | TGI (BT-549 breast): 71.4 µM | TGI (OVCAR-4 ovarian): > 100 µM

OCC1OC(Oc2cc(O)cc(/C=C\c3ccc(O)cc3)c2)C(O)C(O)C1O (stereo unspecified)
TGI (RXF 393 renal): > 100 µM | TGI (HL-60(TB) leukemia): > 100 µM | TGI (SR leukemia): > 100 µM | TGI (PC-3 prostate): > 100 µM | TGI (CCRF-CEM leukemia): > 100 µM | TGI (RPMI-8226 leukemia): > 100 µM | TGI (SK-MEL-28 melanoma): > 100 µM | TGI (SF-295 CNS): > 100 µM | TGI (LOX IMVI melanoma): > 100 µM | TGI (HT29 colon): > 100 µM | TGI (SNB-75 CNS): > 100 µM | TGI (EKVX NSCLC): > 100 µM | TGI (U251 CNS): > 100 µM | TGI (NCI-H522 lung): > 100 µM | TGI (DU-145 prostate): > 100 µM | TGI (UACC-62 melanoma): > 100 µM | TGI (BT-549 breast): > 100 µM | TGI (OVCAR-4 ovarian): > 100 µM

Oc1c2cc(Br)cc1CCc1cc(Br)cc(c1O)CC2
TGI (COLO 205 colon): 27.7 µM | TGI (RXF 393 renal): 70.4 µM | TGI (HL-60(TB) leukemia): 51.6 µM | TGI (SR leukemia): > 100 µM | TGI (PC-3 prostate): 55.8 µM | TGI (CCRF-CEM leukemia): 97.5 µM | TGI (MALME-3M melanoma): > 100 µM | TGI (RPMI-8226 leukemia): > 100 µM | TGI (SK-MEL-28 melanoma): > 100 µM | TGI (SF-295 CNS): 52.5 µM | TGI (LOX IMVI melanoma): 31.3 µM | TGI (HT29 colon): 35.9 µM | TGI (SNB-75 CNS): 88.3 µM | TGI (U251 CNS): 65.8 µM | TGI (NCI-H522 lung): 45.8 µM | TGI (DU-145 prostate): > 100 µM | TGI (UACC-62 melanoma): 46 µM | TGI (BT-549 breast): 73.1 µM

CC1=NN(C(=O)CC(=O)Nc2ccccc2Cl)C(=O)C1N=Nc1ccc(C(=O)O)cc1 (stereo unspecified)
TGI (COLO 205 colon): > 100 µM | TGI (RXF 393 renal): > 100 µM | TGI (HL-60(TB) leukemia): > 100 µM | TGI (SR leukemia): > 100 µM | TGI (PC-3 prostate): > 100 µM | TGI (CCRF-CEM leukemia): > 100 µM | TGI (MALME-3M melanoma): > 100 µM | TGI (RPMI-8226 leukemia): > 100 µM | TGI (SK-MEL-28 melanoma): > 100 µM | TGI (SF-295 CNS): > 100 µM | TGI (LOX IMVI melanoma): > 100 µM | TGI (HT29 colon): > 100 µM | TGI (EKVX NSCLC): > 100 µM | TGI (U251 CNS): > 100 µM | TGI (NCI-H522 lung): > 100 µM | TGI (DU-145 prostate): > 100 µM | TGI (UACC-62 melanoma): > 100 µM | TGI (BT-549 breast): > 100 µM | TGI (OVCAR-4 ovarian): > 100 µM

N#CC1=C(S)N(C2OC(CO)C(O)C(O)C2O)C(c2ccccc2)=CC1c1ccccc1 (stereo unspecified)
TGI (COLO 205 colon): > 100 µM | TGI (RXF 393 renal): 92.7 µM | TGI (HL-60(TB) leukemia): > 100 µM | TGI (SR leukemia): > 100 µM | TGI (PC-3 prostate): > 100 µM | TGI (CCRF-CEM leukemia): > 100 µM | TGI (MALME-3M melanoma): > 100 µM | TGI (RPMI-8226 leukemia): > 100 µM | TGI (SK-MEL-28 melanoma): > 100 µM | TGI (SF-295 CNS): > 100 µM | TGI (LOX IMVI melanoma): 86.6 µM | TGI (HT29 colon): > 100 µM | TGI (SNB-75 CNS): > 100 µM | TGI (U251 CNS): > 100 µM | TGI (NCI-H522 lung): > 100 µM | TGI (DU-145 prostate): > 100 µM | TGI (UACC-62 melanoma): 62.7 µM | TGI (BT-549 breast): > 100 µM | TGI (OVCAR-4 ovarian): > 100 µM

CN(CCCNC(=O)c1cn(C)c2c1ccc1cc(Cl)c(Cl)cc12)CCCNC(=O)c1cn(C)c2c1ccc1cc(Cl)c(Cl)cc12
TGI (COLO 205 colon): 9.58 µM | TGI (RXF 393 renal): 16.7 µM | TGI (HL-60(TB) leukemia): 8.32 µM | TGI (SR leukemia): 16.5 µM | TGI (PC-3 prostate): 27.4 µM | TGI (CCRF-CEM leukemia): 38.7 µM | TGI (MALME-3M melanoma): 31.8 µM | TGI (SK-MEL-28 melanoma): 42 µM | TGI (SF-295 CNS): 38.3 µM | TGI (LOX IMVI melanoma): > 43.3 µM | TGI (HT29 colon): 29.4 µM | TGI (SNB-75 CNS): 25.6 µM | TGI (EKVX NSCLC): 31.5 µM | TGI (U251 CNS): 11.4 µM | TGI (NCI-H522 lung): 31.5 µM | TGI (DU-145 prostate): 31.6 µM | TGI (UACC-62 melanoma): 31.7 µM | TGI (BT-549 breast): 33.3 µM | TGI (OVCAR-4 ovarian): 25.3 µM
